# Reference: paper PMC8504577, “Evaluation of a Clinically Relevant Drug–Drug Interaction Between Rosuvastatin and Clopidogrel and the Risk of Hepatotoxicity” (Frontiers in Pharmacology, 2021)
# Where two headings read alike, the source gives them in different places.
# Columns and labels:
# [1] = cited from earlier work
# [2] = parameters: method as in Tornio et al. (2014); conditions: ref Tornio et al. (2014); cited from earlier work
# [3] = Plasma pharmacokinetic study in rats; conditions: for AUC0–12h: rat plasma
# Protocol: For the plasma pharmacokinetic study, 16 rats were randomly assigned into four groups (n = 4, each group, groups I to IV) and received oral (p.o.) administrations as oral gavage of CP (27 mg/kg) or the same volume of vehicle control for 20 days. Then, the rats were made to fast overnight before dosing but with free access to water. On day 21, rats in group I were treated with a p.o. dose as oral gavage of CP at 27 mg/kg and a single intravenous (i.v.) dose of RSV at 5 mg/kg. Rats in group II were treated with a p.o. dose as oral gavage of vehicle control and a single i.v. dose of RSV at 5 mg/kg. Rats in group Ⅲ were treated with a p.o. dose as oral gavage of CP at 27 mg/kg and a p.o. dose as oral gavage of RSV at 5 mg/kg. Rats in group Ⅳ were treated with a p.o. dose as oral gavage of vehicle control and a p.o. dose as oral gavage of RSV at 5 mg/kg. Blood samples (0.15 ml) were collected at 0, 1, 2, 5, 15, 30, 60, 120, 180, 360, 480, 600, and 720 min after administration of the i.v. dose of the RSV group and at 0, 5, 30, 60, 120, 180, 360, 480, 600, and 720 min for the p.o. dose as oral gavage of the RSV group. After each sampling, a volume of 0.15 ml physiologic saline solutions was administered to sustain isotonic fluid balance. Plasma samples were harvested by using a centrifuge and then stored at −80°C until analysis by LC-MS/MS.
# A Shimadzu LC-30AD liquid chromatography system (Shimadzu, Kyoto, Japan) and an API4000 triple quadruple tandem mass spectrometer (Applied Biosystems/Sciex, Framingham, MA, United States) coupled with an ESI source was used for the LC-MS/MS analysis of in vivo samples. The separation was carried out on an Agilent Extend C18 column (1.8 µm, 4.6 mm × 30 mm, Agilent Technologies). The mobile phase consisting of acetonitrile (A) and water (B: 1 mM ammonium acetate and 1% (V/V) formic acid). […] The flow rate was 1 ml/min and the gradient elution method was as follows: 0.01 min (10% A)-0.4 min (10% A), 0.8 min (95% A)-2.0 min (95% A), and 2.3 min (10% A)-2.5 min (stop).
# (§1) Phoenix WinNonlin® 7.1 (Pharsight Corporation, Mountain View, CA, United States) was used to calculate the pharmacokinetic parameters by the noncompartmental method. IC50 values were obtained by a computer-generated nonlinear least squares fit using GraphPad Prism 8.1 (GraphPad Software, San Diego, CA, United States). Statistical analysis was performed using SPSS ver. 22.0 (IBM, Chicago, IL, United States). The results are presented as mean ± S.D., unless otherwise stated. After testing for the homogeneity of variance, statistical analysis was performed with a one-way ANOVA followed by the LSD post hoc test or unpaired Student’s t-test. A probability (p) of less than 0.05, 0.01, and 0.001 was considered to be statistically significant, highly significant, and extremely significant, respectively.
# [4] = human; ref Ayalasomayajula et al., 2007; Itkonen et al., 2015; cited from earlier work
# OATP1B3 = molecular target: T1, OATP1B3 (Homo sapiens, UniProt Q9NPD5); experiment: cell-based; conditions: 100 μM
# T1 sequence (Q9NPD5 1-702): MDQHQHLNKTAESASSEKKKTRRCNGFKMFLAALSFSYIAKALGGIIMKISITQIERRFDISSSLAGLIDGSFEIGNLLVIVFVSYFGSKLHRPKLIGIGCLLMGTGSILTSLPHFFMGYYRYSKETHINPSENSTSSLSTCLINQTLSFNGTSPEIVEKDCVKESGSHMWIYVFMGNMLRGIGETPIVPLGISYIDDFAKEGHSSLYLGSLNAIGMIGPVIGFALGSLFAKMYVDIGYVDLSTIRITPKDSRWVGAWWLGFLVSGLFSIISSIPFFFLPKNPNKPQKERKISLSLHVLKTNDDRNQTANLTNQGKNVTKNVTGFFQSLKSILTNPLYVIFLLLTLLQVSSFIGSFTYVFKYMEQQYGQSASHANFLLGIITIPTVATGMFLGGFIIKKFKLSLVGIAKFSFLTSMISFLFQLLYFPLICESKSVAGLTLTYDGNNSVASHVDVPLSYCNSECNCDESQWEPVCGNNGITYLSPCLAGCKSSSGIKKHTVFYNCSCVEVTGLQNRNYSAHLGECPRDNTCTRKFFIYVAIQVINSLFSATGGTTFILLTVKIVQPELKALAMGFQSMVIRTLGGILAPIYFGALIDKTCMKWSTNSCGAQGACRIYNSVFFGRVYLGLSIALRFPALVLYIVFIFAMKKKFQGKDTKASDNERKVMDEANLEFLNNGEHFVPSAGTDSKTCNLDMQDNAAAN
# Protocol: (§2) The OATP1B1, OATP1B3, and mock cells were cultured in the DMEM medium containing 10% fetal bovine serum, penicillin–streptomycin solution (100 U/mL and 0.1 mg/ml), and 0.5 mg/ml geneticin at 37°C in the presence of 5% CO2. The cells were seeded in a 24-well plate at a density of 4×10^5 cells/well and grown for 80–90% confluence. […] After washing the cells three times with transporter buffer at 4°C, the cells were lysed with liquid nitrogen. The lysates were precipitated with methanol and centrifuged at 12,000 rpm at 4°C for 5 min. The supernatant was analyzed by LC-MS/MS. Protein concentration was determined using the Pierce® BCA Protein Assay Kit. All experiments were performed in triplicate.
# as §1
# OATP1B1 [5] = molecular target: T2, OATP1B1 (Homo sapiens, UniProt Q9Y6L6); experiment: cell-based; conditions: 100 μM
# T2 sequence (Q9Y6L6 1-691): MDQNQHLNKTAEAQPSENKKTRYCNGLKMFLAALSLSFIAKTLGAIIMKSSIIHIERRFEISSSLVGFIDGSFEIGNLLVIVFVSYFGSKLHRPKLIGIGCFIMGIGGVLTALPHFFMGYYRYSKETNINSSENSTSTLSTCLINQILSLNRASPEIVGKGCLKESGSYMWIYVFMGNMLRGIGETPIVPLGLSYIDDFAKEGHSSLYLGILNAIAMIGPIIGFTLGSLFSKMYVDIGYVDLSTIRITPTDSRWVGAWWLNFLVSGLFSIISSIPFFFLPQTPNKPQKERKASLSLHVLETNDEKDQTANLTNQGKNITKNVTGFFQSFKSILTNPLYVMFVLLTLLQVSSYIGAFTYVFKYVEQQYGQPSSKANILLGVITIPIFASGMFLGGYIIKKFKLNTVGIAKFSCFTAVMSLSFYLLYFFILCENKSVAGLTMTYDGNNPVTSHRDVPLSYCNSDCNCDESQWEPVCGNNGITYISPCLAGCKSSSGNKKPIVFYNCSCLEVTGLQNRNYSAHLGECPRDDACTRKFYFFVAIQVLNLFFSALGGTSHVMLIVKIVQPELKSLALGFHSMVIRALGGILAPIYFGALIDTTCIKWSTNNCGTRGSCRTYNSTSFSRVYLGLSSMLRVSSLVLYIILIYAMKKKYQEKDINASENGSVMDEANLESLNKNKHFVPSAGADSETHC
# Protocol: as §2, §1
# [6] = test system: human primary hepatocytes; experiment: Cytotoxicity (MTT, AST, LDH) in cryopreserved human hepatocytes; assay type: cell-based; conditions: 24 and 96 h incubation
# Protocol: Cytotoxicity was determined with MTT assay in cryopreserved human hepatocytes. Thawing and plating of cryopreserved hepatocytes were carried out according to the manufacturer’s protocol. […] 11 μL of 5 mg/ml MTT was added to each well of the plate, and then the plate was incubated at 37°C for 3–4 h. After the medium was aspirated, 150 μL of DMSO was added to dissolve the formazan. The absorbance at 570 nm was measured and corrected for background absorption at 690 nm using a SpectraMax® i3 plate reader (Molecular Devices, Silicon Valley, CA, United States). AST and LDH levels in the medium of parallel processed plates were measured by commercially available assay kits. […] All experiments were performed in triplicate.
# OATP1B1 [7] = conditions: ref Tamraz et al. (2013), cited from earlier work
# [8] = for Imax,u, unbound steady-state plasma peak concentration: fu×I1
# [9] = substrate cerivastatin, read-out: IC50 OTAP1B1 (cerivastatin, CER, as substrate)
# [10] = substrate estrone sulfate, read-out: IC50 OTAP1B1 (estrone sulfate, ES, as substrate)
smiles,measurement,setting,value
"O=C(O)[C@H](c1ccccc1Cl)N1CCc2sccc2C1 [CPC, clopidogrel carboxylic acid]",Elimination half-life,"[1]; ref Sanofi-Aventis, 2011",8 h
same,"fu, fraction unbound in human plasma",[2],0.06 [Tornio et al. (2014)]
same,AUC0–12h,[3]; Group I: single i.v. RSV 5 mg/kg + multiple p.o. CP 27 mg/kg,"299,764 ± 153,504.1 ng×h/mL"
same,AUC0–12h,[3]; Group III: single p.o. RSV 5 mg/kg + multiple p.o. CP 27 mg/kg,"230,181 ± 109,005.9 ng×h/mL"
same,Plasma exposure,"[3]; rats, at 12 h post-dose",remains high
O=C(O)C[C@H](O)C[C@H](O)/C=C/c1c(C2CC2)nc2ccccc2c1-c1ccc(F)cc1 [pitavastatin],Effect of concomitant CP on plasma concentration of the statin,[4],did not change
CO[C@H]1/C=C/O[C@@]2(C)Oc3c(C)c(O)c4c(O)c(c(/C=N/N5CCN(C)CC5)c(O)c4c3C2=O)NC(=O)/C(C)=C\C=C\[C@H](C)[C@H](O)[C@@H](C)[C@@H](O)[C@@H](C)[C@H](OC(C)=O)[C@@H]1C [rifampin],Inhibition of RSV uptake by OATP1B3 cells (positive control),OATP1B3,significantly inhibited
same,Inhibition of RSV uptake by OATP1B1 cells (positive control),OATP1B1 [5],significantly inhibited
CC/C(=C(\c1ccccc1)c1ccc(OCCN(C)C)cc1)c1ccccc1 [tamoxifen],Cytotoxicity (MTT),[6],Dose-dependent cytotoxicity
CC(C)n1c(/C=C/C(O)CC(O)CC(=O)O)c(-c2ccc(F)cc2)c2ccccc21 (stereo not drawn) [fluvastatin],Effect of concomitant CP on plasma concentration of the statin,[4],did not change
"COC(=O)[C@H](c1ccccc1Cl)N1CCC2SC(=O)C=C2C1 (stereo partly drawn) [2-Oxo clopidogrel, 2-oxo clopidogrel]",IC50,OATP1B1 [7]; [9],8.18 µM
same,IC50,OATP1B1 [7]; [10],8.97 µM
same,"I1, peak plasma concentration at steady state","[1]; 300 mg CP, ref Kim et al. (2016)",0.016 [Kim et al. (2016)] μM
same,"fu, fraction unbound in human plasma",[2],0.02 [Tornio et al. (2014)]
same,"I1, peak plasma concentration at steady state","[8]; 75 mg CP, calculated from I1 at 300 mg assuming linear pharmacokinetics",0.004 µM
same,"Imax,u, unbound steady-state plasma peak concentration",[8]; 75 mg CP,0.00008 µM
same,"Imax,u, unbound steady-state plasma peak concentration",[8]; 300 mg CP,0.0003 µM
"O=C(O)[C@H]1O[C@@H](OC(=O)[C@H](c2ccccc2Cl)N2CCc3sccc3C2)[C@H](O)[C@@H](O)[C@@H]1O [Clopidogrel acyl glucuronide, clopidogrel acyl-β-D-glucuronide]",IC50,OATP1B1 [7]; [9],10.9 µM
same,IC50,OATP1B1 [7]; [10],33.5 µM
same,"I1, peak plasma concentration at steady state","[1]; 75 mg CP, ref Itkonen et al. (2015)",1.72 [Itkonen et al. (2015)] μM
same,"I1, peak plasma concentration at steady state","[1]; 300 mg CP, ref Itkonen et al. (2015)",4.77 [Itkonen et al. (2015)] μM
same,"fu, fraction unbound in human plasma",[2],0.1 [Tornio et al. (2014)]
same,"Imax,u, unbound steady-state plasma peak concentration",[8]; 75 mg CP,0.172 µM
same,"Imax,u, unbound steady-state plasma peak concentration",[8]; 300 mg CP,0.477 µM
